Literature values as cited in US6171786A, “Methods for preventing multidrug resistance in cancer cells” (priority 1996, dated 2001).

Columns and labels:
[1] = clinical trials; Berdel et al., 1988; cited from earlier work
[2] = system: hormone-refractory prostate cancer; details: continuous infusion, peak of 300 μg/mL at end of 14 days; cited from earlier work

CCCCCCCCCCCCCCCCSCC(COC)COP(=O)([O-])OCC[N+](C)(C)C (centres unmarked) [ilmofosine]
MTD, oral administration [1]: 200 mg/day

Cc1ccc(C(=O)Nc2ccc(S(=O)(=O)O)c3cc(S(=O)(=O)O)cc(S(=O)(=O)O)c23)cc1NC(=O)c1cccc(NC(=O)Nc2cccc(C(=O)Nc3cc(C(=O)Nc4ccc(S(=O)(=O)O)c5cc(S(=O)(=O)O)cc(S(=O)(=O)O)c45)ccc3C)c2)c1 [suramin]
activity in hormone-refractory prostate cancer [2]: has shown activity in hormone-refractory prostate cancer
